Non-standard residues stand in square brackets, D forms with d. No end group written: not given here. pT = C[C@@H](OP(=O)(O)O)[C@H](N)C(=O)O
Assays:
[1] = tested on: Pin1-WW domain binding surface; assay: HSQC NMR of WW53 and mutants versus WW50
[2] = molecular target: Pin1-WW domain (WW50, Pin1 residues 1-50) (Homo sapiens, UniProt Q13526); assay: NMR titration of ^15N-WW50 with phosphate or HEPES; format: binding; conditions: at 10 mM buffer anion and 1 mM WW domain, calculated from KD
[3] = molecular target: Pin1-WW domain construct WW50 (Pin1 residues 1-50) (UniProt Q13526 1-50, 15N-labelled (uniform) in the NMR titrations); assay: NMR titration
[4] = C-terminal mutants of WW53 compared with WW53 and WW50

| Molecule | HSQC peak shifts of key binding surface residues versus WW53 [1, 4] | WW domain bound to buffer anion [2] [%] | further results |
| --- | --- | --- | --- |
| WW53 E51A/P52A: WW53 construct (Pin1 residues 1-53) with E51A/P52A mutations (MADEEKLPPGWEKRMSRSSGRVYYFNHITNASQWERPSGNSSSGGKNGQGAAA; residues 1-53 (WW domain); UniProt Q13526 1-53, looked up, variant E51A P52A) | progressive peak shifts for key binding surface residues |  |  |
| O=P(O)(O)O [phosphate, sodium phosphate] |  | 15 |  |
| O=S(=O)(O)CCN1CCN(CCO)CC1 [HEPES] |  | 6 |  |
| WW53 E51A: WW53 construct (Pin1 residues 1-53) with E51A mutation (MADEEKLPPGWEKRMSRSSGRVYYFNHITNASQWERPSGNSSSGGKNGQGAPA; residues 1-53 (WW domain); UniProt Q13526 1-53, looked up, variant E51A) | progressive peak shifts for key binding surface residues |  | HSQC peak shifts of key binding surface residues versus WW53 ([1]; C-terminal mutants of WW53 compared with WW53 and WW50, listed as E51A): progressively shifted some key binding surface peaks toward their WW50 positions |
| GVVEVDAAV[pT]PEERHLSKMQQNGY (peptide, UniProt P05067-4 659-682, looked up) [phosphopeptide representing APP residues 659-682 phosphorylated at T668 (pAPP659-682)] |  |  | koff [3]: 2040 s⁻¹; kon [3]: 9.1e+07 M⁻¹ s⁻¹ |
